Data on 16 compounds can be found in patent US7919508B2, “3-piperidinylisochroman-5-ols as dopamine agonists” (Aventis Pharmaceuticals Inc., priority 2004, dated 2011).

Structures can show the parent of a compound that is named as a salt.

Experiment [1] deals with T1, D1 receptor (Homo sapiens, UniProt P21728).
T1 construct: expressed in transfected cells; host or cells: D1 transfected CHO cell line
Put plainly: D1 Activation Adenylyl Cyclase Assay (cAMP FlashPlate, D1 transfected CHO cell line). Format: cell-based. As to conditions: agonist activity at the D1 receptor, adenylate cyclase assay, D1 transfected CHO cell line; read-out: D1 EC50. As to the method: D1 Activation Adenylyl Cyclase Assay
Purpose: To measure D1-agonist activity compounds using an Adenylyl Cyclase Activation Flash Plate Assay from NEN.
Buffers: Activation and Detection buffers are provided from NEN: Catalog # SMP004A.
Maintenance of D1 transfected CHO cell line: • 1. Cells are grown in a 150 cc flask in an incubator at 37° C. with 5% CO2 for 2-3 days (4 maximum) until confluent. • 2. Aspirate off old media (Cells adhere to the plastic flask), wash 2× with sterile PBS. • 3. Add ˜5 mL of Trypsin EDTA (enough to cover bottom of the flask) for 5 min. at RT. • 4. Stop digestion with 15 mL of Media (Ham's F12 plus 10% FBS, 1% P/S, 400 μg/mL G418). • Bang flask on counter to release them from the flask. • 5. Add 2 mL of this to 30 mL of Media in a fresh flask. Return to incubator. Preparation of Cells for Assay: • 1. Loosen the cells with 5 mL Vercine (EDTA)/flask for 10 minutes in incubator. • 2. Add 20 mL of Serum-free media/flask. Transfer to 50-mL Falcon tube. • 3. Spin down cells at 1000 RPM for 5 minutes at 4° C. • 4. Aspirate off old media and resuspend in 5 mL of Serum-free media/plate to be done. • 5. Dilute 10 μL 1/10 in 90 μL Trypan Blue solution and count with a hemocytometer. • Count (live cells only) all four areas and average them. • Count X 10^5 equals cells/mL (including accounting for dilution in Trypan). • 6. Dilute to 50,000 cells/50 μL (1,000,000 cells/mL) in Serum-free media. • 7. Put 50 μL/well in Rows 3-12 of a cAMP FlashPlate. • 8. Put in incubator at 37° C. for 2-4 hours, to allow cells to recover and attach. Adenylyl Cyclase Activation Assay: • 1. Prepare the cAMP standards: • Add 130 μL/well of stimulation buffer to each row of a separate 96-well “standard” plate, 2 columns/plate. • Dilute stock cAMP standard 1/5 with stimulation buffer (final concentration is 1000 pmol/mL). Add 130 μL of this to row A. • Make 1/2 serial dilutions by adding 130 μL from each well to the next (A-G), mixing between each. • Final concentrations are: • A: 500, B: 250, C: 125, D: 62.5, E: 31.25, F: 15.6, G: 7.8, H: 0 pmol/mL. • Place 100 μL from each row from 2 columns of the standard plate into columns 1 and 2 of each “reaction” plate. • 2. Prepare the negative and positive control in the “reaction” plate: • Column 3, rows A-D, add 100 μL stimulation buffer (negative control). • Column 3, rows E-H, add 90 μL of stimulation buffer plus 10 μL of 200 μM APO (positive control, […]). (10 μL 10 mM APO, plus 490 μL stim. buffer=1/50 dilution.) • 3. Prepare the agonist compound dilutions in the “compound” plate: • Add 80 μL of stimulation buffer to row A (One column for each compound), and 90 μL of stimulation buffer to rows B—H. • Add 20 μL of 10 mM of each compound to appropriate row A. • Make 1/10 serial dilutions by adding 10 μL from each well to the next (A-H), mixing between each. • 4. […]. Prepare Detection/Stop buffer by adding 90 μL/plate of cAMP-^125I to 10 mL/plate plus 6 mL (for dead volume) of detection buffer. Steps 6-8 performed with the Multi-Mek. • 6. Add 50 μL to each well of the FlashPlate with CHO cells set up earlier. • 7. Incubate at RT for 8 minutes. • 8. Stop reaction by adding 100 μL of detection/stop buffer to each well. • 9. Cover with plastic film and incubate at RT for 16-24 hours (don't wait more than 24 hours). • 10. Count in a Packard Top-Count. Calculations: • 1. Raw signals generated by cAMP standard wells, without cells, are averaged at each cAMP concentration and converted to % B/Bo by dividing the raw signal at each cAMP concentration by the raw signal with no cAMP added. • 2. These values are used to generate a standard curve by plotting cAMP concentration versus % B/Bo. • 3. Raw data for each compound at each concentration is also converted to % B/B. by the same method. • 4. These values are then converted to pmol cAMP/mL using the standard curve. • 5. These cAMP values are then averaged across the three replicates for each compound concentration. • 6. […]

For experiment [2], the target named is human dopamine D2Long (D2L) receptors (Homo sapiens, UniProt P14416).
Experimental: [N-Methyl-^3H]Spiroperidol Binding to Cloned Human Dopamine D2Long Receptors
This assay measures the in vitro activity of drugs on cloned human dopamine D2Long (D2L) receptors and predicts the direct dopamine-displacing properties of neuropsychiatric, cardiovascular and renal agents at human dopamine D2 receptors.
Cells were maintained in Ham's F12+10% Fetal Bovine Serum+Penicillin/Streptomycin (100 U/ml/100 μg/ml)+G418 (400 μg/ml) medium and were split using Trypsin-EDTA (1 ml/plate, room temperature for ˜2 min. or until cells have lifted off plates). • 2. […] Plates are incubated at 37° C.+5% CO2 for ˜3 days or until cells were confluent.
Cells are harvested by mechanical scraping, washed using PBS collected in 250 ml Corning polypropylene centrifuge tubes, spun down and resuspended in dH2O (final volume per harvest approximately 60 ml). Protein determination is made according to the method of Lowry (Biorad DC Assay Kit). Following the determination of the protein concentration, the protein is diluted into distilled water with 10% DMSO to the appropriate volume based on expression levels (Bmax). The concentrated protein is aliquoted into 1.5 ml screw top eppendorf tubes and placed into a −80° C. freezer.
Assay Requirement: 1 cryovial per two 96 well plates
0.5M Tris Wash Buffer, pH 7.7 • a) 44.4 g Tris HCl • 26.5 g Tris Base • q.s. to 1 Liter (0.5 M Tris buffer, pH 7.7 at 37° C.) • b) make a 1:10 dilution in distilled H2O (0.05 M. Tris buffer, pH 7.7) • 2. Tris Buffer containing physiological salts • a) Stock buffer • NaCl 7.014 g • KCl 0.372 g • CaCl2 0.222 g • MgCl2 0.204 g • q.s. To 100 ml with 0.5 M. Tris Buffer • b) Dilute 1:10 in distilled H2O • This yields 0.05 M. Tris HCl, pH 7.7, containing NaCl (120 mM), KCl (5 mM), CaCl2 (2 mM) and MgCl2 (1 mM) • Optional: add 0.1% ascorbic acid and check pH (in assays with compounds that may oxidize. • c) 1.0% polyethyleneimine stock in 0.5M Tris (reagent 1.a) • Dilute 1:10 in distilled H2O Binding Assay • 750 μl Tissue • 150 μl [^3H]NMSP • 100 μl vehicle (for total binding) or 30 μM (−)
eticlopride (for nonspecific binding) or appropriate drug concentration.
The 96-Well Packard Unifilters GF/B are incubated for >1 h at 25° C. in 0.1% polyethylenimine. The cold tissue is added last and mixed on a orbital shaker for a few seconds and is then incubated at 37° C. for 30 min in a shaking water bath. The assay is stopped by rapid filtration through Packard Unifilter plates. The filter membranes are then washed with 15 ml of ice-cold 0.05 M Tris buffer. The filters are then dried (˜15 min. under a heat lamp or incubated for 15 min. in a 60° C. oven) and a bottom seal is applied. Then 40 μl of Packard Microscint 20 scintillation cocktail are added and a permanent topseal (Type P) is applied and heat sealed. The plates are placed in a Packard Topcount.
Specific binding is defined as the difference between total binding and the binding in the presence of 3 μM S-(−)-eticlopride. Total binding is approximately 10% of the total added ligand. […] The percent inhibition at each drug concentration is the mean of duplicate determinations.
Experiment [3] concerns the target T2, human dopamine D1 receptor (Homo sapiens, UniProt P21728).
T2 construct: A 1.4 Kb Hind III to Xho I fragment was subcloned into the vector pMMLV; expressed in transfected cells; host or cells: CHO cells, clone CHO-D1M#9 (plasmid pHD1MMLV), membranes
Put plainly: [3H]-SCH-23390 binding to cloned human dopamine D1 receptors (CHO cell membranes). As to conditions: competitive binding, [3H]-SCH-23390, cloned human D1 in CHO membranes; read-out: D1 affinity Ki.

Chain of human dopamine D2Long (D2L) receptors (P14416 whole entry): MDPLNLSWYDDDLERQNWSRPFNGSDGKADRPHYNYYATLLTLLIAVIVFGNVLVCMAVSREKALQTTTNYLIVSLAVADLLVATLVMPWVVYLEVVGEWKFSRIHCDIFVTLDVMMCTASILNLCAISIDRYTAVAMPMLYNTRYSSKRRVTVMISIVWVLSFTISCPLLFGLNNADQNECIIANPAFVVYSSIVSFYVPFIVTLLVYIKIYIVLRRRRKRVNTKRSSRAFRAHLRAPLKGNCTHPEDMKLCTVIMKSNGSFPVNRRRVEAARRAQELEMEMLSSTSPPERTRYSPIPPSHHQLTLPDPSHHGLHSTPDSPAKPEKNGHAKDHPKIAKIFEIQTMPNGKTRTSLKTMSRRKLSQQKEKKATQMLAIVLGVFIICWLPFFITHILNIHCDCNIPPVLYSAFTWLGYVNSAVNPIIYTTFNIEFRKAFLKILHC
T1 sequence (P21728 whole entry): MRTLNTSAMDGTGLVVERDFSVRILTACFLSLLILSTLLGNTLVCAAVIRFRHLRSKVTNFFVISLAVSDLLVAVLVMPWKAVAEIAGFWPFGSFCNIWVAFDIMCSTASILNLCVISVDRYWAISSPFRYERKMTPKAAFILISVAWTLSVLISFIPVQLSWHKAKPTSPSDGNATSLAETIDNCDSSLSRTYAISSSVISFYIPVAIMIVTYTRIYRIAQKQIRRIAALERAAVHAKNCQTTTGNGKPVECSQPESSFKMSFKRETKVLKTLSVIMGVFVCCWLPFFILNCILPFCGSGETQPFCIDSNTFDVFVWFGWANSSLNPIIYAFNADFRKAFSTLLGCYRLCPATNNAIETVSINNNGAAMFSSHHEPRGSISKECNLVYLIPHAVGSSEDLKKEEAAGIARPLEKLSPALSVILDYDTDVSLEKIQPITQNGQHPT
T2 sequence (P21728 whole entry, the tested form may be a part): as the sequence (P21728 whole entry) above

`Cc1ccc2c(c1O)C[C@@H](C1CCN(CCC(C)NC(=O)c3ccc(Cl)cc3)CC1)O[C@H]2CN` (stereo partly drawn) [Example 13, N-{3-[4-((1R,3S)-1-Aminomethyl-5-hydroxy-6-methyl-isochroman-3-yl)-piperidin-1-yl]-1-methyl-propyl}-4-chloro-benzamide dihydrochloride]: in experiment [1], the EC50 came out at 30 nM. In addition, the Ki in experiment [2] came out at 361 nM; in experiment [3], 128 nM.
For `Cc1ccc2c(c1O)C[C@@H](C1CCN(CCC(C)NC(=O)c3ccc(C(F)(F)F)cc3)CC1)O[C@H]2CN` (stereo partly drawn) [Example 16, N-{3-[4-((1R,3S)-1-Aminomethyl-5-hydroxy-6-methyl-isochroman-3-yl)-piperidin-1-yl]-1-methyl-propyl}-4-trifluoromethyl-benzamide dihydrochloride], in that order: 56 nM, 379 nM and 149 nM.
For `Cc1ccc2c(c1O)C[C@@H](C1CCN(CCC(C)NC(=O)c3ccc(Cl)cc3Cl)CC1)O[C@H]2CN` (stereo partly drawn) [Example 17, N-{3-[4-((1R,3S)-1-Aminomethyl-5-hydroxy-6-methyl-isochroman-3-yl)-piperidin-1-yl]-1-methyl-propyl}-2,4-dichloro-benzamide dihydrochloride], in that order: 18 nM, ≥ 100000 nM and 138 nM.
For the compound `Cc1ccc2c(c1O)C[C@@H](C1CCN(CCC(C)NC(=O)c3ccc4ccccc4c3)CC1)O[C@H]2CN` (stereo partly drawn) [Example 19, Naphthalene-2-carboxylic acid {3-[4-((1R,3S)-1-aminomethyl-5-hydroxy-6-methyl-isochroman-3-yl)-piperidin-1-yl]-1-methyl-propyl}-amide dihydrochloride], the 50% effective concentration (EC50) in experiment [1] amounted to 6.1 nM. The Ki in experiment [2] was determined as 310 nM; in experiment [3], 158 nM.
With `Cc1ccc2c(c1O)C[C@@H](C1CCN(CCC(C)NC(=O)c3cc4ccccc4s3)CC1)O[C@H]2CN` (stereo partly drawn) [Example 20, Benzo[b]thiophene-2-carboxylic acid {3-[4-((1R,3S)-1-aminomethyl-5-hydroxy-6-methyl-isochroman-3-yl)-piperidin-1-yl]-1-methyl-propyl}-amide dihydrochloride], in experiment [1], the EC50 came out at 61 nM. Moreover, the results for the Ki in experiment [2] and in experiment [3] were 265 nM and 52.4 nM, respectively.
Take `Cc1ccc2c(c1O)C[C@@H](C1CCN(CCC(C)NC(=O)c3ccccc3)CC1)O[C@H]2CN` (stereo partly drawn) [Example 21, N-{3-[4-((1R,3S)-1-Aminomethyl-5-hydroxy-6-methyl-isochroman-3-yl)-piperidin-1-yl]-1-methyl-propyl}-benzamide dihydrochloride]: the EC50 in experiment [1] is 14 nM. Also, the inhibition constant (Ki) is ≥ 100000 nM in experiment [2] and 120 nM in experiment [3].
For `Cc1ccc2c(c1O)C[C@@H](C1CCN(CCC(C)NC(=O)c3ccc(F)cc3)CC1)O[C@H]2CN` (stereo partly drawn) [Example 22, N-{3-[4-((1R,3S)-1-Aminomethyl-5-hydroxy-6-methyl-isochroman-3-yl)-piperidin-1-yl]-1-methyl-propyl}-4-fluoro-benzamide dihydrochloride], in that order: 24 nM, 564 nM and 114 nM.
For `Cc1ccc2c(c1O)C[C@@H](C1CCN(CCC(C)NC(=O)c3cccs3)CC1)O[C@H]2CN` (stereo partly drawn) [Example 25, Thiophene-2-carboxylic acid {3-[4-((1R,3S)-1-aminomethyl-5-hydroxy-6-methyl-isochroman-3-yl)-piperidin-1-yl]-1-methyl-propyl}-amide dihydrochloride], in that order: 54 nM, 218 nM and 56.1 nM.
For `Cc1ccc2c(c1O)C[C@@H](C1CCN(Cc3ccc(F)cc3)CC1)O[C@H]2CN` [Example 26, (1R,3S)-1-Aminomethyl-3-[1-(4-fluoro-benzyl)-piperidin-4-yl]-6-methyl-isochroman-5-ol dihydrobromide], in that order: 11 nM, ≥ 10000 nM and 33 nM.
In the case of `Cc1ccc2c(c1O)C[C@@H](C1CCN(CC(c3ccccc3)c3ccccc3)CC1)O[C@H]2CN` [Example 28, (1R,3S)-1-Aminomethyl-3-[1-(2,2-diphenyl-ethyl)-piperidin-4-yl]-6-methyl-isochroman-5-ol dihydrobromide], the EC50 in experiment [1] stood at 131 nM. In addition, the inhibition constant (Ki) in experiment [2] was 180 nM; in experiment [3], 82 nM.
`Cc1ccc2c(c1O)C[C@@H](C1CCN(CC(C)c3ccccc3)CC1)O[C@H]2CN` (stereo partly drawn) [Example 29, (1R,3S)-1-Aminomethyl-3-[1-(2-phenyl-propyl)-piperidin-4-yl]-6-methyl-isochroman-5-ol dihydrobromide]: the half-maximal effective concentration (EC50) in experiment [1] worked out at 40 nM. For the same compound, the Ki in experiment [2] is ≥ 10000 nM; in experiment [3] it was 64 nM.
For `Cc1ccc2c(c1O)C[C@@H](C1CCN(C(C)Cc3ccccc3)CC1)O[C@H]2CN` (stereo partly drawn) [Example 30, (1R,3S)-1-Aminomethyl-6-methyl-3-[1-(1-methyl-2-phenyl-ethyl)-piperidin-4-yl]-isochroman-5-ol dihydrobromide], in that order: 60 nM, ≥ 10000 nM and 55.2 nM.
For `COc1cccc(CN2CCC([C@@H]3Cc4c(ccc(C)c4O)[C@H](CN)O3)CC2)c1` [Example 31, (1R,3S)-1-Aminomethyl-3-[1-(3-methoxy-benzyl)-piperidin-4-yl]-6-methyl-isochroman-5-ol dihydrochloride], in that order: 13 nM, 575 nM and 12 nM.
For `Cc1ccc2c(c1O)C[C@@H](C1CCN(C3Cc4ccccc4C3)CC1)O[C@H]2CN` [Example 32, (1R,3S)-1-Aminomethyl-3-(1-indan-2-yl-piperidin-4-yl)-6-methyl-isochroman-5-ol dihydrobromide], in that order: 12 nM, 127 nM and 22 nM.
Regarding `Cc1ccc2c(c1O)C[C@@H](C1CCN(Cc3ccccc3)CC1)O[C@H]2CN1CCCC1` [Example 178, (1R,3S)-3-(1-Benzyl-piperidin-4-yl)-6-methyl-1-pyrrolidin-1-ylmethyl-isochroman-5-ol], the EC50 in experiment [1] is ≥ 10000 nM. This compound came in with a Ki in experiment [2] of 181 nM.
In the case of `CCN(C)C[C@@H]1O[C@H](C2CCN(Cc3ccc(C(F)(F)F)cc3)CC2)Cc2c1ccc(C)c2O` [Example 183, (1R,3S)-1-[(Ethyl-methyl-amino)-methyl]-6-methyl-3-[1-(4-trifluoromethyl-benzyl)-piperidin-4-yl]-isochroman-5-ol], the EC50 in experiment [1] stood at 7000 nM. The Ki in experiment [3] was found to be 123 nM.
